Data taken from ChEMBL document CHEMBL1201862, “PubChem BioAssay data set” (2004).
The source made the active and inactive calls.

Columns and labels:
Format in all cases: functional
CHO-K1 = test: (§1) Counterscreen for antagonists of the orexin 1 receptor (OX1R; HCRTR1): Homogeneous time resolved fluorescence (HTRF)-based cell-based dose response assay to identify antagonists of the parental CHO-K1 cell line. [Related pubchem assays (depositor defined):AID434989, AID435008, AID463079, AID485270, AID492963, AID492964, AID492965, AID493232, AID504699, AID504701]; conditions: Cricetulus griseus
[1] = as §1, with “Fluorescence-based” for “Homogeneous time resolved fluorescence (HTRF)-based”, “cell-based high throughput” for “cell-based”, “CHO” for “CHO-K1”
[2] = target: T1, Sentrin-specific protease 7 (Homo sapiens, UniProt Q9BQF6);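 further: Luminescence-based dose-response confirmation of ultra-high-throughput screening hits, measuring inhibition of SENP7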
T1 sequence (Q9BQF6 whole entry): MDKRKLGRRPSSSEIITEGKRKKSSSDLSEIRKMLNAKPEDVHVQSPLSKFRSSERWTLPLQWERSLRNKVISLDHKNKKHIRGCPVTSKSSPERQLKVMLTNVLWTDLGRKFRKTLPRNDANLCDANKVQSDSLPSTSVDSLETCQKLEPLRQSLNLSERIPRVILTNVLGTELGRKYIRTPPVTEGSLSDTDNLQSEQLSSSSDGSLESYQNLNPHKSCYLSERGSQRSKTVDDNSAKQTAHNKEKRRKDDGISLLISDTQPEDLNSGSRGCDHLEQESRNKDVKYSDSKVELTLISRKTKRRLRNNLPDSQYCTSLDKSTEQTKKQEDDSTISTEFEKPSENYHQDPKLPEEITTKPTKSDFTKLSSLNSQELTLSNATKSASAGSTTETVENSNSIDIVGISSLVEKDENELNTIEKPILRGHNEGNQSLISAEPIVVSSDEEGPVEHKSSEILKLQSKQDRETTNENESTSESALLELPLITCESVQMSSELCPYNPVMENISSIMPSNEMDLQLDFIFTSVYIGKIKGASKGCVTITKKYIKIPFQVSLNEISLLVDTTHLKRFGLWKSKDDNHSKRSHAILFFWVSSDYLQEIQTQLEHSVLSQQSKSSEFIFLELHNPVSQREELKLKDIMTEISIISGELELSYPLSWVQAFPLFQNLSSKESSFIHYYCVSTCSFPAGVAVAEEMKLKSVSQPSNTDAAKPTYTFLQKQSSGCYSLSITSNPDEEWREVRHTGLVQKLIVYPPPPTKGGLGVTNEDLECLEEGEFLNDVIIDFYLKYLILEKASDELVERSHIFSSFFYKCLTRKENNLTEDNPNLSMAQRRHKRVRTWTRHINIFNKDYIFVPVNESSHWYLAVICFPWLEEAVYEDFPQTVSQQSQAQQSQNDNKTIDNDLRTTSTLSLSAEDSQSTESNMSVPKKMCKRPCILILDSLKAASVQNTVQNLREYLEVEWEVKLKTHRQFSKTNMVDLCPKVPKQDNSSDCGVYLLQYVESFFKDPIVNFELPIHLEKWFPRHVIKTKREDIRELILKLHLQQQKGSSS

Orexin receptor type 2 = target: T2, Orexin receptor type 2 (Homo sapiens, UniProt O43614); test: Counterscreen assay for antagonists of the orexin 1 receptor (OX1R; HCRTR1): Homogeneous Time Resolved Fluorescence (HTRF)-based cell-based dose response assay for antagonists of the orexin 2 receptor (OX2R; HCRTR2), run by assay provider.
T2 sequence (O43614 whole entry): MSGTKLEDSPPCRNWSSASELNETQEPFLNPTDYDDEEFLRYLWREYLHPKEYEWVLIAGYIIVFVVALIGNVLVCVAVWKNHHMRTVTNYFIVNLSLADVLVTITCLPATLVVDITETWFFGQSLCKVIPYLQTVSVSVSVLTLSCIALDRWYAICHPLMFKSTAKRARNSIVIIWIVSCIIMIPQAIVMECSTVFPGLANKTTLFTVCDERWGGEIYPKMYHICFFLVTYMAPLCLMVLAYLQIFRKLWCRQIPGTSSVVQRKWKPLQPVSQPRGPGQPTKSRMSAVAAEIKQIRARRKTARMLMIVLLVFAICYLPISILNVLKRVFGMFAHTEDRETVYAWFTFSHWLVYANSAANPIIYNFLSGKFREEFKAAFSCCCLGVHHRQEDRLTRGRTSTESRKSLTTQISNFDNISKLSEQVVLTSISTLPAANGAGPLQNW

[3] = target: Cyclin-dependent kinase 9 (Homo sapiens, UniProt P50750);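 further: value from the CDK9 entry of a kinome-spanning kinase panel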
[4] = target: Casein kinase I isoform alpha (Homo sapiens, UniProt P48729)
[5] = target: Mitogen-activated protein kinase kinase kinase kinase 2 (Homo sapiens, UniProt Q12851);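 further: measured as one member of a kinome-wide kinase panel, with MAP4K2 as the panel entry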
[6] = target: Mitogen-activated protein kinase 9 (Homo sapiens, UniProt P45984);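 further: value from a kinome panel profiling assay, MAPK9 panel entry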
[7] = target: G protein-coupled receptor kinase 5 (Homo sapiens, UniProt P34947); test: Navigating the Kinome. Panel member name: GPRK5
[8] = target: Macrophage colony-stimulating factor 1 receptor (Homo sapiens, UniProt P07333);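 further: value comes from the Navigating the Kinome screening panel, CSF1R member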
Activated CDC42 kinase 1 = Activated CDC42 kinase 1 (Homo sapiens, UniProt Q07912); test: Navigating the Kinome. Panel member name: ACK1
[9] = target: Cyclin-dependent kinase 8 (Homo sapiens, UniProt P49336); test: Navigating the Kinome. Panel member name: CDK8
[10] = target: Calcium/calmodulin-dependent protein kinase type II subunit alpha (Homo sapiens, UniProt Q9UQM7); test: Navigating the Kinome. Panel member name: CAMK2A
[11] = target: Vascular endothelial growth factor receptor 2 (Homo sapiens, UniProt P35968)
Aurora kinase A = target: T3, Aurora kinase A (Homo sapiens, UniProt O14965);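 further: value from the Navigating the Kinome kinase panel profiling, panel entry STK6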
T3 sequence (O14965 whole entry): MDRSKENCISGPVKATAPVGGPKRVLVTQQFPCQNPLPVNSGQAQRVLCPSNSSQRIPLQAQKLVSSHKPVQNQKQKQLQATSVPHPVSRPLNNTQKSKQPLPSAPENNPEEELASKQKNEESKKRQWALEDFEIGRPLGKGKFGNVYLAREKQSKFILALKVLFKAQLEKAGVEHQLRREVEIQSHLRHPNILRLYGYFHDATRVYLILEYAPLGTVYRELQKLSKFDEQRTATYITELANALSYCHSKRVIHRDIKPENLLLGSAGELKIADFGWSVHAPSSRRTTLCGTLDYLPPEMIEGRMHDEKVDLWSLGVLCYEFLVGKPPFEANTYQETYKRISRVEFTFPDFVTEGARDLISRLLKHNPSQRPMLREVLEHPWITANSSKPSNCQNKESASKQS

[12] = target: Tyrosine-protein kinase JAK3 (Homo sapiens, UniProt P52333)
[13] = target: Vascular endothelial growth factor receptor 1 (Homo sapiens, UniProt P17948);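 further: measured within a kinome-wide profiling panel, FLT1 as the panel member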
[14] = target: Mitogen-activated protein kinase 8 (Homo sapiens, UniProt P45983);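 further: value comes from one member of a kinome-wide kinase profiling panel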
Sequence of Mitogen-activated protein kinase 8 (P45983 whole entry): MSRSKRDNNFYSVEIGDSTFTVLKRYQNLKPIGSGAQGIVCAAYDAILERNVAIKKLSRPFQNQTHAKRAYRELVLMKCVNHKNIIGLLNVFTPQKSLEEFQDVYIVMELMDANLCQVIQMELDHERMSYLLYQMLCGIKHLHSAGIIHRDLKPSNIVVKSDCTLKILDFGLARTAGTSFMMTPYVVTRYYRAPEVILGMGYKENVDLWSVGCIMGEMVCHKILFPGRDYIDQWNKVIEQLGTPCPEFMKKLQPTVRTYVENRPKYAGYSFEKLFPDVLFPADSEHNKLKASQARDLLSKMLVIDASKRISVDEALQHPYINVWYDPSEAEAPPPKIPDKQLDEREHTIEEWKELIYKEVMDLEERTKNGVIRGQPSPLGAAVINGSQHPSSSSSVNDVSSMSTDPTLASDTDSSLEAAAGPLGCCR

Sequence of G protein-coupled receptor kinase 5 (P34947 whole entry): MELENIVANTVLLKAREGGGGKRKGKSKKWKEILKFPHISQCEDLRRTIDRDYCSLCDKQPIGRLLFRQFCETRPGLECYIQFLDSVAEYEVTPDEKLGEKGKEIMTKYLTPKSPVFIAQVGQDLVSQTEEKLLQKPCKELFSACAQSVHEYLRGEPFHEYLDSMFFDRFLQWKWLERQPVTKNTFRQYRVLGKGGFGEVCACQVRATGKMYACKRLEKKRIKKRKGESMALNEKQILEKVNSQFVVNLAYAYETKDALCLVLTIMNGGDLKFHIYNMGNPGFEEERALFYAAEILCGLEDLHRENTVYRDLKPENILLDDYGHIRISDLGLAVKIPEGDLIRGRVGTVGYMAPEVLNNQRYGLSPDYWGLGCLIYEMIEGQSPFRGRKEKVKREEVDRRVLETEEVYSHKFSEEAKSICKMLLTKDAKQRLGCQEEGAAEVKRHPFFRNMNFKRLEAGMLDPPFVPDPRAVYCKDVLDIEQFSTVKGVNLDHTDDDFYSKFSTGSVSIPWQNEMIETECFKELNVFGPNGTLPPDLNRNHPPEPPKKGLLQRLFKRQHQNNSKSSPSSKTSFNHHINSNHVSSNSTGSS
Sequence of Mitogen-activated protein kinase 9 (P45984 whole entry): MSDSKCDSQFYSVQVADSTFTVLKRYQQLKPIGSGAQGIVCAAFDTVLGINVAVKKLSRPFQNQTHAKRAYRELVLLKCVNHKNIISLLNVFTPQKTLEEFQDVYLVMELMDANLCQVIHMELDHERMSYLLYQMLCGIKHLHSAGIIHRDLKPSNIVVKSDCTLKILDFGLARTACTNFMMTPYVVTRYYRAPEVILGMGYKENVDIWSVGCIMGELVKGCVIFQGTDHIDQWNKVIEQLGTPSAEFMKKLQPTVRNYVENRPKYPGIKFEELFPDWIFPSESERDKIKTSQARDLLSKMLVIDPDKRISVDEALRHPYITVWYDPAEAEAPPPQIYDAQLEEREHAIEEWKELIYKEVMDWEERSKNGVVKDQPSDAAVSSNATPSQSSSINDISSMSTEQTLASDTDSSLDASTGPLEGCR
Sequence of Activated CDC42 kinase 1 (Q07912 whole entry): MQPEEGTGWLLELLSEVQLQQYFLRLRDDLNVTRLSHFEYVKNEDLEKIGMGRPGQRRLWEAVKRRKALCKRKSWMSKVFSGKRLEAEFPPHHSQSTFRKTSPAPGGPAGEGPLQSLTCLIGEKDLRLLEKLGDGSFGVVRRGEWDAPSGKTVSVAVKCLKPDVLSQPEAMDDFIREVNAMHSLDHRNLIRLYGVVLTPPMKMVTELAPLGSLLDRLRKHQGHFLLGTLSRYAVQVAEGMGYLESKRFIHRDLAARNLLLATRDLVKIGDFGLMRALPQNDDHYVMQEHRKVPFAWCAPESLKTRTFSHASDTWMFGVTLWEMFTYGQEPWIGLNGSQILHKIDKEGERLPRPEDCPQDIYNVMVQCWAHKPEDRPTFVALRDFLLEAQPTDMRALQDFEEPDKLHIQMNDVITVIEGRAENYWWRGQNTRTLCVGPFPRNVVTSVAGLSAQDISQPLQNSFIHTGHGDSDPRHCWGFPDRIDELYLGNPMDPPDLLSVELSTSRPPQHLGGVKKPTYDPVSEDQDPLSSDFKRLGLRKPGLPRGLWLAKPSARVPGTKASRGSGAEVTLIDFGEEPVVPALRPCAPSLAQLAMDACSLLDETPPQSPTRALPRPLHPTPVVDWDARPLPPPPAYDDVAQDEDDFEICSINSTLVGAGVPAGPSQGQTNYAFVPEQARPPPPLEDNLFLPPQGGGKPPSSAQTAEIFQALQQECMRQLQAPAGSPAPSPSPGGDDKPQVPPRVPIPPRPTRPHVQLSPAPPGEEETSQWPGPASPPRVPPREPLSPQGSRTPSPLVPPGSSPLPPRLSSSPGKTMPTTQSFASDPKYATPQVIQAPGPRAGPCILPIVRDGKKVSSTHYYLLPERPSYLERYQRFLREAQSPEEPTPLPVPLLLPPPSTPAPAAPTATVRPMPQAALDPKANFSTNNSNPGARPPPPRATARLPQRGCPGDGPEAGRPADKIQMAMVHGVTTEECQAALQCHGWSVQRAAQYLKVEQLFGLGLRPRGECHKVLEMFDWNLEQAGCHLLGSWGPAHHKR
Sequence of Mitogen-activated protein kinase kinase kinase kinase 2 (Q12851 whole entry): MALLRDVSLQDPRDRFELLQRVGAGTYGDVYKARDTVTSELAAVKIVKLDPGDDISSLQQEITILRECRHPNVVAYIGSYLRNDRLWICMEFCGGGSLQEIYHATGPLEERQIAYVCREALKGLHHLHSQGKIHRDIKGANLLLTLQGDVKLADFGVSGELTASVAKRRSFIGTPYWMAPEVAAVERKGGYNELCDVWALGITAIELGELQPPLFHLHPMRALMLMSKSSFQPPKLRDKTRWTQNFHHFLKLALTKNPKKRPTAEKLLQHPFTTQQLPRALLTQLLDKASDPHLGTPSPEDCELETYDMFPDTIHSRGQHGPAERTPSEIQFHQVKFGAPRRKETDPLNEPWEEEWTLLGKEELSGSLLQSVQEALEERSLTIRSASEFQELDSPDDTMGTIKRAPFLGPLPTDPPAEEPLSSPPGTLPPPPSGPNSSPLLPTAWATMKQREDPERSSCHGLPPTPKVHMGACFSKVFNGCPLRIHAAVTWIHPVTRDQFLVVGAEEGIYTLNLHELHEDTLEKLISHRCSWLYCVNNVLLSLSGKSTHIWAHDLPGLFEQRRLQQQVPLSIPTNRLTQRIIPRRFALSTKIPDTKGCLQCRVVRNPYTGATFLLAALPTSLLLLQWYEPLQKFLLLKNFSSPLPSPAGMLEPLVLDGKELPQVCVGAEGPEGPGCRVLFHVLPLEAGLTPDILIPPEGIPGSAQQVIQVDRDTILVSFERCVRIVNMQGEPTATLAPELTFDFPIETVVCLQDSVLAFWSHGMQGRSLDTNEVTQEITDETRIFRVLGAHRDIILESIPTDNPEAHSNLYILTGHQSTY
Sequence of Macrophage colony-stimulating factor 1 receptor (P07333 whole entry): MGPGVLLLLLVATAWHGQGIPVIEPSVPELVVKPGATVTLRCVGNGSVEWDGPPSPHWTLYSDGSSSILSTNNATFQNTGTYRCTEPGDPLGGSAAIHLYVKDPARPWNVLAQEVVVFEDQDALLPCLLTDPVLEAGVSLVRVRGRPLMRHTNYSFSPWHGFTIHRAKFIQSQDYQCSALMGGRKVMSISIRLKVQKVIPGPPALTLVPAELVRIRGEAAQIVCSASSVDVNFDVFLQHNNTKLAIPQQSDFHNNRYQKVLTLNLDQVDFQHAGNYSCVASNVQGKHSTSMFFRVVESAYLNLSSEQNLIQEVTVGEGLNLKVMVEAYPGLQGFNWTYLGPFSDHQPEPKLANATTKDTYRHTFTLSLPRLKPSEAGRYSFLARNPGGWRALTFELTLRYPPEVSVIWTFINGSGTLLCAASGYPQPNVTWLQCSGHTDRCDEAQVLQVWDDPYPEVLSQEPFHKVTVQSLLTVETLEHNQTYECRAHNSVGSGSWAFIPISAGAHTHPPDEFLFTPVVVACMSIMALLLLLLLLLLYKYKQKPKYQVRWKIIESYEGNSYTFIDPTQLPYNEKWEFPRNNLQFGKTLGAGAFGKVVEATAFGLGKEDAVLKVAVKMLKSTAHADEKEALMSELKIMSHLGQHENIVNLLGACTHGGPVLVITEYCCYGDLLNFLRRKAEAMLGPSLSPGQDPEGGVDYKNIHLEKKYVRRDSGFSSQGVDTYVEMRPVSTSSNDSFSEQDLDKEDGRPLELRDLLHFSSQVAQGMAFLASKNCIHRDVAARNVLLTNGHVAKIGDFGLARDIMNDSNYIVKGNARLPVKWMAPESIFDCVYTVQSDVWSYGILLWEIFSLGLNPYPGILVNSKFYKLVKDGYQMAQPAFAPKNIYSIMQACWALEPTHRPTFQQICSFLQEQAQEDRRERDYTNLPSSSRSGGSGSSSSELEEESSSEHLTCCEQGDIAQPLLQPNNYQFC
Sequence of Casein kinase I isoform alpha (P48729 whole entry, canonical isoform): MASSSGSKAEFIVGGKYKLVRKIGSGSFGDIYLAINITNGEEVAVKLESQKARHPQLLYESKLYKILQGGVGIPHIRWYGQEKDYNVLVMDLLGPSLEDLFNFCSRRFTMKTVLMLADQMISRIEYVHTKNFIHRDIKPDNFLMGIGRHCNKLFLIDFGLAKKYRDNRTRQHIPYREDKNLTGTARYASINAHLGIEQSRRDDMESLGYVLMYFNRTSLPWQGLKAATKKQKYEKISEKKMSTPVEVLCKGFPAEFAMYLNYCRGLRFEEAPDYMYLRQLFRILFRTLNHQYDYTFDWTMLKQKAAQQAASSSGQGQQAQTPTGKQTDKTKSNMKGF
Sequence of Cyclin-dependent kinase 9 (P50750 whole entry, canonical isoform): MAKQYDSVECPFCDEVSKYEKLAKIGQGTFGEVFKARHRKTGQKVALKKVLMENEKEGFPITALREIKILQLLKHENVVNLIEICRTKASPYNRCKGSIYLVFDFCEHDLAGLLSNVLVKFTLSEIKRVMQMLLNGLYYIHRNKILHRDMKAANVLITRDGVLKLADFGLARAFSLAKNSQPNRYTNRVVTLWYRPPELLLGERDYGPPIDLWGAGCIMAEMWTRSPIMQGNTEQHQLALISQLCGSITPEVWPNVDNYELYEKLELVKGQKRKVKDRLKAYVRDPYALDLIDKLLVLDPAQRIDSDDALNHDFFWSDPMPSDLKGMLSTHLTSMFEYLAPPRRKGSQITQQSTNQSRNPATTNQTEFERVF

| Structure (SMILES) | IC50 (CHO-K1) | IC50 [1] | IC50 [2] | IC50 (Orexin receptor type 2) | Ki [3] | Ki [4] | Ki [5] | Ki [6] | Ki [7] | Ki [8] | Ki (Activated CDC42 kinase 1) | Ki [9] | Ki [10] | Ki [11] | Ki (Aurora kinase A) | Ki [12] | Ki [13] | Ki [14] |
| --- | --- | --- | --- | --- | --- | --- | --- | --- | --- | --- | --- | --- | --- | --- | --- | --- | --- | --- |
| Cc1ccnc2ccc(-c3nc4ccccc4o3)cc12 | > 66.2 µM (inactive) | > 49.8 µM (inactive) | 2.2 µM (active) | > 50 µM (inactive) | – | – | – | – | – | – | – | – | – | – | – | – | – | – |
| O=C(NCCc1cccs1)N1CC=C(c2c[nH]c3ncccc23)CC1 | – | – | – | – | 0.398 µM (active) | 1.58 µM (active) | > 2.51 µM (inactive) | > 3.98 µM (inactive) | > 3.98 µM (inactive) | > 2.51 µM (inactive) | > 3.98 µM (inactive) | 0.0794 µM (active) | 3.98 µM (active) | 2 µM (active) | > 1.58 µM (inactive) | > 5.01 µM (inactive) | > 3.98 µM (inactive) | 3.98 µM (active) |
